ChEMBL document CHEMBL5543059, “Discovery of anti-inflammatory natural flavonoids: Diverse scaffolds and promising leads for drug discovery” (Eur J Med Chem, 2023)
Converted amounts (≈) assume the structure as drawn. One block for each molecule: values may come before it.

Legend:
J774.A1 = assay: Anti-inflammatory activity in mouse J774.A1 cells assessed as suppression of LPS-induced IL-6 production by ELISA analysis; format: functional, cell-based
BV-2 [1] = assay: Anti-inflammatory activity in mouse BV-2 cells assessed as inhibition of LPS-induced NO production preincubated with compound for 1 hrs followed by LPS stimulation and measured after 24 hrs by Griess reagent based assay; format: functional, cell-based
RAW264.7 [2] = assay: Antiinflammatory activity in mouse RAW264.7 cells assessed as suppression of LPS-induced iNOS expression preincubated with compound for 1 hrs followed by LPS-stimulation and measured after 24 hrs by Western blot analysis; format: functional, cell-based
[3] = target: T1, Polyunsaturated fatty acid 5-lipoxygenase (Homo sapiens) (UniProt P09917); assay: Inhibition of 5-Lipoxygenase (unknown origin) at 30 uM relative to control
T1 sequence (whole entry): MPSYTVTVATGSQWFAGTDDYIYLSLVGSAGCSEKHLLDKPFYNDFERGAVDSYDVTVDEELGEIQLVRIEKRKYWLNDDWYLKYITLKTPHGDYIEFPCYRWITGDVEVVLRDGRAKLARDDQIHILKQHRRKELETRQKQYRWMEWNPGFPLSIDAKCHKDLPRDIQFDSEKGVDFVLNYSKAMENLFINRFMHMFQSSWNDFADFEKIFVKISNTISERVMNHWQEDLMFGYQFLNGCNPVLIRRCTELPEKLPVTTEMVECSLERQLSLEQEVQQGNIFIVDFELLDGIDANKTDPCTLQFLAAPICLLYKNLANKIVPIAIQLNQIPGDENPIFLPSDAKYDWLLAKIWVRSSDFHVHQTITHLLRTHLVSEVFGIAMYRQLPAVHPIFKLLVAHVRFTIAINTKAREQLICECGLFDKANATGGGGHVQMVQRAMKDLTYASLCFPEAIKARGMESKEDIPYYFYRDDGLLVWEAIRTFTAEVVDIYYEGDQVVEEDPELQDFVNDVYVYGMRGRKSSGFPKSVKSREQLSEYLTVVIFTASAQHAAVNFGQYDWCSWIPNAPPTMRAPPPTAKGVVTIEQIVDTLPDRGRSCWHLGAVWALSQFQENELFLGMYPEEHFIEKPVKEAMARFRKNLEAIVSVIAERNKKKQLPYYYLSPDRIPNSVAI

RAW264.7 [4] = assay: Anti-inflammatory activity in mouse RAW264.7 cells assessed as inhibition of LPS-induced NO production at 20 uM by Griess reagent based analysis relative to control; format: functional; parameters: scale not given: the % may be the effect or the level left
RAW264.7 [5] = assay: Anti-inflammatory activity in LPS-stimulated mouse RAW264.7 cells assessed as inhibition of NO production incubated for 24 hrs by Griess reagent based assay; format: functional, cell-based; settings: RAW264.7, 24 h
BV-2 [6] = assay: Anti-inflammatory activity in mouse BV-2 cells assessed as reduction in LPS-induced NO production; format: functional, cell-based
THP-1 = assay: Anti-inflammatory activity in human THP-1 cells assessed as inhibition of LPS-stimulated NO production by ELISA analysis; format: functional, cell-based
RAW264.7 [7] = assay: Anti-inflammatory activity in mouse RAW264.7 cells assessed as reduction in LPS-induced NO production by ELISA analysis; format: functional, cell-based
Peritoneal macrophage [8] = assay: Anti-inflammatory activity against LPS-stimulated mouse peritoneal macrophage assessed as reduction in nitric oxide production; format: functional, cell-based
BV-2 [9] = assay: Anti-inflammatory activity in mouse BV-2 cells assessed as reduction in LPS-induced NO production pretreated for 1 hr followed by LPS-stimulation and measured after 18 hrs by 2,3-diaminonaphthalene reagent based fluorescence analysis; format: functional, cell-based
Neutrophil [10] = assay: Inhibition of fMLF/CB-induced human Neutrophil activation assessed as reduction in elastase release; format: functional, cell-based
Neutrophil [11] = assay: Inhibition of fMLF/CB-induced human Neutrophil activation assessed as reduction in superoxide anion; format: functional, cell-based
Neutrophil [12] = assay: Inhibition of fMLF/CB-induced human Neutrophil activation assessed as reduction in superoxide anion at 10 uM relative to control; format: functional; parameters: scale not given: the % may be the effect or the level left
BV-2 [13] = assay: Antineuroinflammatory activity in LPS-induced mouse BV-2 cells assessed as inhibition of iNOS production at 50 uM pre-incubated for 2 hr followed by LPS-stimulation measured for 24 hrs by Western blot analysis; format: functional; parameters: scale not given: the % may be the effect or the level left; settings: time 26 hrs
[14] = Inhibition of TNF-alpha induced NF-kappaB activation in HEK293-A cells incubated for 15 mins by Western blot analysis; format: cell-based; settings: Homo sapiens, HEK293, 0.25 h
Peritoneal macrophage [15] = assay: Antiinflammatory activity in mouse peritoneal macrophages assessed as fold reduction in LPS-induced TNFalpha level at 20 uM incubated for 4 hrs by ELISA method; format: functional
RAW264.7 [16] = assay: Anti-inflammatory activity in mouse RAW264.7 cells assessed as inhibition of LPS-induced iNOS mRNA expression; format: functional, cell-based
BMDM = assay: Antiinflammatory activity in LPS-stimulated mouse BMDM cells assessed as inhibition of NF-kappaB signalling pathway incubated for 3 hrs by Western blot analysis; format: functional, cell-based
Mus musculus = assay: Anti-inflammatory activity in mouse model of xylene-induced auricle edema assessed as inhibition of ear swelling at 50 mg/kg, IG pre-treated for 1 hr followed by xylene addition and measured after 1 hr relative to control; format: functional; parameters: scale not given: the % may be the effect or the level left
Neutrophil [17] = assay: Inhibition of fMLF/CB-induced human Neutrophil activation assessed as reduction in superoxide anion generation pre-incubated for 2 mins prior to CB induction for 3 mins followed by fMLF addition by spectrophotometric analysis; format: functional, cell-based
Neutrophil [18] = assay: Inhibition of fMLF/CB-induced human Neutrophil activation assessed as reduction in elastase release using MeO-Suc-Ala-Ala-Pro-Val-pnitroanilide as substrate pre-incubated for 2 mins followed by fMLF/CB-stimulation and measured for 5 mins; format: functional, cell-based
HEK293 = assay: Anti-inflammatory activity against TNFalpha-induced HEK293 cells assessed as inhibition of NF-kappaB activity pre-indubated for 1 hr followed by TNFalpha treatment measured for 5 hrs by luciferase based assay; format: functional, cell-based; settings: Homo sapiens

Compound: COc1cc(O)c2c(=O)c(OC)c(-c3ccc(OC)c(O)c3)oc2c1 [AYANIN]
- IC50 (J774.A1): 17.8 µM
- IC50 (BV-2 [1]): 25.1 µM

Compound: CC1=C(O)C(=O)C=C2C1=CC=C1[C@@]2(C)CC[C@@]2(C)[C@@H]3C[C@](C)(C(=O)O)CC[C@]3(C)CC[C@]12C [CELASTROL]
- IC50 (RAW264.7 [2]): 1000 nM

Compound: COc1cc2oc(-c3ccc(O)c(O)c3)cc(=O)c2c(O)c1OC [CIRSILIOL]
- inhibition [3]: 48.5%
- Activity (RAW264.7 [4]): 54%

Compound: COc1ccc(-c2cc(=O)c3c(OC)c(OC)c(OC)c(OC)c3o2)cc1OC [NOBILETIN]
- Activity (BV-2 [13]): 71.2%

Compound: CC(C)=CCc1c2c(c3occ(-c4ccc(O)c(O)c4)c(=O)c3c1O)C=CC(C)(C)O2 [POMIFERIN]
- fold change (FC) (Peritoneal macrophage [15]): 1.5
- IC50 (RAW264.7 [16]): 6.4 µg/mL (≈ 15.2 µM)
- IC50 (BMDM): 13 µg/mL (≈ 30.9 µM)

Compound: COc1ccc(-c2cc(=O)c3c(OC)c(OC)c(OC)cc3o2)cc1OC [SINENSETIN]
- Activity (Mus musculus): 58%

Compound: COc1cc(O)c2c(=O)cc(-c3ccc(O)c(OC)c3)oc2c1 [VELUTIN]
- IC50 (Neutrophil [17]): ≤ 12.5 µM
- IC50 (Neutrophil [18]): ≤ 15.2 µM

Compound: COc1c(O)cc(O)c2c(=O)cc(-c3ccccc3)oc12 [WOGONIN]
- IC50 (HEK293): 28.1 µM

The next lines start with results.

- IC50 (RAW264.7 [2]): 3100 nM
Compound: COc1cc(-c2cc(=O)c3c(O)cc(O)cc3o2)ccc1O [CHRYSOERIOL]

- IC50 (RAW264.7 [5]): 8.5 µM
- IC50 (BV-2 [6]): 15.2 µM
- IC50 (THP-1): 19.4 µM
- IC50 (RAW264.7 [7]): 17.6 µM
- IC50 (Peritoneal macrophage [8]): 148 µM
- IC50 (BV-2 [9]): 55.4 µM
Compound: COc1ccc2c(c1)c(CC(=O)O)c(C)n2C(=O)c1ccc(Cl)cc1 [INDOMETHACIN]

- IC50 (Peritoneal macrophage [8]): 23.6 µM
Compound: COc1ccc(-c2coc3cc(O)c(OC)c(O)c3c2=O)cc1 [IRISOLIDONE]

- IC50 (Neutrophil [10]): 3.2 µM
- IC50 (Neutrophil [11]): 1100 nM
Compound: O=c1cc(N2CCOCC2)oc2c(-c3ccccc3)cccc12 [LY-294002]
- Activity (Neutrophil [12]): 96.5%

- IC50 (J774.A1): 8.7 µM
Compound: CC(C)(O)c1ccccc1CC[C@@H](SCC1(CC(=O)O)CC1)c1cccc(/C=C/c2ccc3ccc(Cl)cc3n2)c1 [MONTELUKAST]

- IC50 [14]: 3.9 µM
Compound: COc1c(O)cc2oc(-c3ccccc3)cc(=O)c2c1O [OROXYLIN A]

- IC50 (RAW264.7 [16]): 7.2 µg/mL (≈ 17.8 µM)
- IC50 (BMDM): 12 µg/mL (≈ 29.7 µM)
Compound: CC(C)=CCc1c2c(c3occ(-c4ccc(O)cc4)c(=O)c3c1O)C=CC(C)(C)O2 [OSAJIN]
- fold change (FC) (Peritoneal macrophage [15]): 1.8
